In brackets after ≈: the same amount, converted by molar mass. Like-named read-outs stand apart in the source and are kept apart here. Values belong to the compound of their own block, whether it stands above or below them.
How the values were obtained:
[1] = tested on: Pseudomonas aeruginosa SR 5018; test: minimal inhibitory concentration (agar plate two-fold dilution), ofloxacin resistant Pseudomonas aeruginosa SR 5018; type: cell-based; settings: SR5018
Procedure: (§1) 3) The said sodium salt (1 g) prepared by neutralizing under sterile condition is dissolved in distilled water for injection (4 g) and administered to a patient suffering from sensitive pseudomonal bacteria twice a day intravenously to treat this infection. The free acid or sodium salt is dissolved in 0.01N-aqueous sodium hydrogen carbonate and tested for minimal inhibitory concentration against gram-negative bacteria according to a method of Japan Society of Chemotherapy on an agar plate by two-fold dilution method.

Escherichia coli SR 5082 = test: minimal inhibitory concentration (agar plate two-fold dilution), Escherichia coli SR 5082; type: cell-based; settings: SR5082
Procedure: as §1

[2] = tested on: Pseudomonas aeruginosa SR 24; test: minimal inhibitory concentration (agar plate two-fold dilution), Pseudomonas aeruginosa SR 24; type: cell-based
Procedure: as §1
The minimal inhibitory concentration of Compound (I) where R^1 is 2-(2-amino-4-thiazolyl)-2-(1-carboxy-1-methylethoxyimino)acetamido, R^2 is hydrogen, R^3 is hydrogen, R^4 is 3,4-dihydroxyphenyl, R^5 is methylene, R^6 combined with Y- is negative charge, and X is sulfur against Pseudomonas aeruginosa SR 24 is 0.2 μg/ml. By altering the groups with the following ones to vary the activities as listed below.

[3] = tested on: Pseudomonas aeruginosa SR 24; test: 50% effective dose preventing lethal Pseudomonas aeruginosa SR 24 mouse infection; type: in vivo
From the text: (§2) The compound is highly safe in the case of intravenous injection to various animals.

various animals = test: safety, intravenous injection to various animals; type: in vivo
From the text: as §2

mice = test: safety, intravenous injection in mice; type: in vivo; settings: up to 1 g/kg
From the text: as §2

rabbits = type: in vivo; settings: up to 1 g/kg
From the text: as §2

[4] = ofloxacin resistant Pseudomonas aeruginosa SR 5018, read-out: MIC
[5] = SR24, Pseudomonas aeruginosa SR 24, Experiment 1, read-out: minimal inhibitory concentration

SMILES: CC(C)(ON=C(C(=O)N[C@@H]1C(=O)N2C(C(=O)[O-])=C(C[n+]3ccc4cc(O)c(O)cc4c3)CS[C@H]12)c1csc(N)n1)C(=O)O [BO-1341, 3-(6,7-dihydroxyisoquinolinio)methyl-7β-(2-(2-aminothiazol-4-yl)-2-(1-carboxy-1-methylethoxyimino)acetamido)-3-cephem-4-carboxylate, reference compound]
MIC [1, 4]: 0.4 µg/mL (≈ 0.636 µM)
MIC (Escherichia coli SR 5082): 1.6 µg/mL (≈ 2.55 µM)

SMILES: CON=C(C(=O)N[C@@H]1C(=O)N2C(C(=O)[O-])=C(C[N+]34CCC(C(N)=O)(CC3)CC4)CS[C@H]12)c1nsc(N)n1 [E-1040, 3-(4-carbamoylquinuclidinio)methyl-7β-[2-(5-amino-1,2,4-thiadiazol-3-yl)-2-methoxyimino]-acetamido-3-cephem-4-carboxylate, reference compound]
MIC ([1]; Pseudomonas aeruginosa): 6.3 µg/mL (≈ 11.4 µM)

SMILES: O=C(Cc1ccccc1)N[C@@H]1C(=O)N2C(C(=O)[O-])=C(CSc3cc[n+](CC(=O)c4ccc(O)c(O)c4)cc3)CS[C@H]12 [No. 1]
MIC [2, 5]: > 100 µg/mL

SMILES: CON=C(C(=O)N[C@@H]1C(=O)N2C(C(=O)[O-])=C(CSc3cc[n+](CC(=O)c4ccc(O)c(O)c4)cc3)CS[C@H]12)c1csc(N)n1 [No. 5]
MIC [2, 5]: 0.4 µg/mL (≈ 0.609 µM)

SMILES: CC(C)(ON=C(C(=O)N[C@@H]1C(=O)N2C(C(=O)[O-])=C(CSc3cc[n+](CC(=O)c4cccc(O)c4O)cc3)CS[C@H]12)c1csc(N)n1)C(=O)O [No. 7]
MIC [2, 5]: 0.39 µg/mL (≈ 0.535 µM)

SMILES: CC(C)(ON=C(C(=O)N[C@@H]1C(=O)N2C(C(=O)[O-])=C(CSc3cc[n+](CC(=O)c4ccc(O)c(O)c4)cc3)CS[C@H]12)c1csc(N)n1)C(=O)O [No. 8]
ED50 ([3]; Pseudomonas aeruginosa, SR24, read-out: ED50 (50% effective dose preventing lethal infection), Pseudomonas aeruginosa SR 24, mouse infection): 1.35 to 6.27 mg/kg
MIC [2, 5]: 0.2 µg/mL (≈ 0.274 µM)

SMILES: CC(C)(ON=C(C(=O)N[C@@H]1C(=O)N2C(C(=O)[O-])=C(CSc3cc[n+](CC(=O)c4ccc(O)c(O)c4)cc3)C[S+]([O-])[C@H]12)c1csc(N)n1)C(=O)O (some centres unmarked) [No. 9]
safety (various animals): highly safe
ED50 (50% effective dose preventing lethal infection) ([3]; Pseudomonas aeruginosa SR 24, mouse infection, listed as Compound (I) where X is sulfinyl): 1.35 mg/kg
death (mice): no death
toxic effect as Antabuse-like activity (mice): no death nor toxic effect as Antabuse-like activity
renal toxicity (rabbits): did not show renal toxicity
MIC ([2]; Pseudomonas aeruginosa SR 24, listed as representative compound (I)): 0.1 µg/mL (≈ 0.134 µM)
MIC [2, 5]: 0.1 µg/mL (≈ 0.134 µM)
MIC ([2]; SR24, Pseudomonas aeruginosa SR 24, read-out: MIC): 0.1 µg/mL (≈ 0.134 µM)
times activity versus E-1040 (MIC) ([1]; Pseudomonas aeruginosa): 63 times
times activity versus ceftazidime (MIC) ([1]; Pseudomonas aeruginosa): 250 times
MIC [1, 4]: 0.1 µg/mL (≈ 0.134 µM)
MIC (Escherichia coli SR 5082): 0.2 µg/mL (≈ 0.269 µM)

SMILES: CC(=O)Oc1ccc(C(=O)C[n+]2ccc(SCC3=C(C(=O)[O-])N4C(=O)[C@@H](NC(=O)C(=NOC(C)(C)C(=O)O)c5csc(N)n5)[C@H]4SC3)cc2)cc1OC(C)=O [No. 11]
MIC [2, 5]: 0.025 µg/mL (≈ 0.0308 µM)

SMILES: CC(C)(ON=C(C(=O)N[C@@H]1C(=O)N2C(C(=O)[O-])=C(CSc3cc[n+](CC(=O)c4ccc(O)c(O)c4)cc3)CO[C@H]12)c1csc(N)n1)C(=O)O [No. 13]
MIC [2, 5]: 0.2 µg/mL (≈ 0.281 µM)

SMILES: CC(C)(O/N=C(\C(=O)N[C@@H]1C(=O)N2C(C(=O)[O-])=C(C[n+]3ccccc3)CS[C@H]12)c1csc(N)n1)C(=O)O [ceftazidime, reference compound]
MIC ([1]; Pseudomonas aeruginosa): 25 µg/mL (≈ 45.7 µM)

Other lines, results leading:

MIC [2, 5]: 0.05 µg/mL (≈ 0.0673 µM)
SMILES: Cc1cc(O)c(O)cc1C(=O)C[n+]1ccc(SCC2=C(C(=O)[O-])N3C(=O)[C@@H](NC(=O)C(=NOC(C)(C)C(=O)O)c4csc(N)n4)[C@H]3SC2)cc1 [No. 14]

MIC [2, 5]: 0.025 µg/mL (≈ 0.0328 µM)
SMILES: CC(C)(ON=C(C(=O)N[C@@H]1C(=O)N2C(C(=O)[O-])=C(CSc3cc[n+](CC(=O)c4cc(O)c(O)c(Cl)c4)cc3)CS[C@H]12)c1csc(N)n1)C(=O)O [No. 18]

MIC [2, 5]: 0.025 µg/mL (≈ 0.0328 µM)
SMILES: CC(C)(ON=C(C(=O)N[C@@H]1C(=O)N2C(C(=O)[O-])=C(CSc3cc[n+](CC(=O)c4cc(O)c(O)cc4Cl)cc3)CS[C@H]12)c1csc(N)n1)C(=O)O [No. 22 (3,4-OH-6-Cl)]

MIC [2, 5]: 0.025 µg/mL (≈ 0.0337 µM)
SMILES: CC(C(=O)c1ccc(O)c(O)c1)[n+]1ccc(SCC2=C(C(=O)[O-])N3C(=O)[C@@H](NC(=O)C(=NOC(C)(C)C(=O)O)c4csc(N)n4)[C@H]3SC2)cc1 (some centres unmarked) [No. 23]

MIC [2, 5]: 0.05 µg/mL (≈ 0.065 µM)
SMILES: CC(C)(ON=C(C(=O)N[C@@H]1C(=O)N2C(C(=O)[O-])=C(CSc3cc[n+](CC(=O)c4ccc(O)c(O)c4)c4c3CCC4)CS[C@H]12)c1csc(N)n1)C(=O)O [No. 25]

MIC [2, 5]: 0.1 µg/mL (≈ 0.14 µM)
SMILES: CC(C)(C=C(C(=O)N[C@@H]1C(=O)N2C(C(=O)[O-])=C(CSc3cc[n+](CC(=O)c4ccc(O)c(O)c4)cc3)CS[C@H]12)c1csc(N)n1)C(=O)O [No. 27]
